Assay results taken from US20090252673A1, “Methods of Making and Using Rubidium-81-Containing Compositions” (priority 2006, published 2009).

How the values were obtained:
[1] = Biodistribution of Rb-81 in rats; format: in vivo, female Wistar rats; details: mean±SD, n=3
Procedure: 1.85-5.33 MBq (50-144 μCi) Rb-81 in 250 μl isotonic saline was injected into the lateral tail vein of 24 non-fasted female Wistar rats weighing 180-220 g (12 animals at each day).
All the animals were anesthesized with Isofluran (1.5 vol. % and 2.01/min 02) during the injection of the Rb-81 solution. 5 min, 10 min, 20 min, 30 min, 45 min, 1 h, 2 h and 4 h post injection of the Rb-81 solution, the animals were sacrificed by carbon dioxide inhalation (n=3 animals for all time points).
The organs of interest (heart, blood, lungs, liver, stomach, spleen, pancreas, small intestine, colon, kidney, adrenal gland, muscle, bone, brain and tail) were dissected, weighed and measured for activity using a well-type g-counter. Tracer accumulation was normalized to the organ weights. All data are expressed as percent of the injected dose per gram tissue (% ID/g, mean±SD).

[2] = tested on: occlusion/reperfusion rat heart model; test: Ex vivo dual tracer autoradiography, Tl-201 and Rb-81 redistribution kinetics; format: in vivo, rats; details: for activity in occluded areas, percent of the uptake in normal tissues: 20 μm heart slices, phosphor-imager ROIs
Procedure: Three additional rats were simultaneously injected with 20 MBq Rb-81 and 2.7 MBq Tl-201. After the occlusion/injection/reperfusion procedure was completed (see FIG. 8), the animals were sacrificed at 0, 15 and 45 min after initiating the reperfusion.
After the hearts of the animals were removed and freshly frozen in liquid nitrogen, they were sliced into short axis 20 μm slices. Radioactivity in the tissues sections was determined by using a phosphor-imager. Rb-81 was measured over a period of 3 h directly after preparation of the slices, whereas the Tl-201 activity was determined after the Rb-81 activity was almost completed (Rb-81: t1/2=4.58 h versus a 4 day decay period).
Quantitative evaluations were carried out by comparison of the detected counts within regions-of-interest in both, normal tissue areas and occluded tissues areas. Comparisons are given in percent of normal heart tissue.

[3] = tested on: rat heart (myocardium), normal and occlusion/reperfusion; test: Imaging of rat hearts using a small animal PET scanner; format: in vivo, female Wistar rats
Procedure: For the PET measurements, a microPET FOCUS 120 small animal scanner (Siemens Medical Solutions USA, Inc.) was used. Imaging was done on 4 female Wistar rats (200-250 g) (see Tab. 1). […] After 5 min, the occlusion was removed and dynamic PET images of the animals were taken for 4 h and 2 h. Two rats were used as controls without occlusion (rest). The first rat was injected with 20.2 MBq Rb-81 and the second rat with 69.3 MBq Rb-81, in 500 μl isotonic saline. Following injection, dynamic PET images of the animals were taken for 4 h (S1#1 und S1#2) and 2 h (S2#3 and S2#4). The Rb-81 solution was injected intravenously in the lateral tail vein of all animals. For occlusion, a 7-0 polypropylene suture on a small curved needle was passed through the left coronary artery (LCA), and ligated to occlude the LCA. After tracer injection, reperfusion was obtained by cutting the suture. LCA occlusion and reperfusion were confirmed by the color change of myocardial surface. […]
After PET imaging, all animals were sacrificed by carbon dioxide inhalation and the organs of interest (see above) were dissected, weighed and measured for activity using a well-type g-counter. […] All data are expressed as percent of the injected dose per gram tissue (% ID/g, mean±SD). […]

[4] = 5 min after application into the tail vein
[5] = 10 min after application into the tail vein
[6] = 20 min after application into the tail vein
[7] = 30 min after application into the tail vein
[8] = 45 min after application into the tail vein
[9] = 60 min after application into the tail vein
[10] = 120 min after application into the tail vein
[11] = 240 min after application into the tail vein

## [81Rb] [Rb-81, Rubidium-81]
[1]; [4]
  biodistribution, Adrenals: 3.68 ± 0.89 % ID/g
  biodistribution, Blood: 0.25 ± 0.07 % ID/g
  biodistribution, Bone: 0.48 ± 0.10 % ID/g
  biodistribution, Brain: 0.10 ± 0.02 % ID/g
  biodistribution, Heart: 4.18 ± 0.18 % ID/g
  biodistribution, Kidney: 9.21 ± 0.98 % ID/g
  biodistribution, Large Intestine: 1.03 ± 0.82 % ID/g
  biodistribution, Liver: 1.25 ± 0.05 % ID/g
  biodistribution, Lung: 2.09 ± 0.43 % ID/g
  biodistribution, Muscle: 0.18 ± 0.02 % ID/g
  biodistribution, Pancreas: 1.81 ± 0.20 % ID/g
  biodistribution, Small Intestine: 4.06 ± 0.91 % ID/g
  biodistribution, Spleen: 1.45 ± 0.30 % ID/g
  biodistribution, Stomach: 0.80 ± 0.41 % ID/g
[1]; [5]
  biodistribution, Adrenals: 3.44 ± 1.07 % ID/g
  biodistribution, Blood: 0.22 ± 0.04 % ID/g
  biodistribution, Bone: 0.66 ± 0.09 % ID/g
  biodistribution, Brain: 0.09 ± 0.03 % ID/g
  biodistribution, Heart: 4.30 ± 0.68 % ID/g
  biodistribution, Kidney: 6.96 ± 1.39 % ID/g
  biodistribution, Large Intestine: 1.22 ± 0.05 % ID/g
  biodistribution, Liver: 2.37 ± 0.20 % ID/g
  biodistribution, Lung: 1.74 ± 0.18 % ID/g
  biodistribution, Muscle: 0.31 ± 0.12 % ID/g
  biodistribution, Pancreas: 2.70 ± 0.02 % ID/g
  biodistribution, Small Intestine: 3.47 ± 0.33 % ID/g
  biodistribution, Spleen: 1.88 ± 0.21 % ID/g
  biodistribution, Stomach: 0.63 ± 0.26 % ID/g
[1]; [6]
  biodistribution, Adrenals: 2.92 ± 0.45 % ID/g
  biodistribution, Blood: 0.21 ± 0.04 % ID/g
  biodistribution, Bone: 0.65 ± 0.15 % ID/g
  biodistribution, Brain: 0.11 ± 0.02 % ID/g
  biodistribution, Heart: 2.55 ± 0.47 % ID/g
  biodistribution, Kidney: 2.90 ± 0.51 % ID/g
  biodistribution, Large Intestine: 0.70 ± 0.07 % ID/g
  biodistribution, Liver: 2.47 ± 0.64 % ID/g
  biodistribution, Lung: 1.62 ± 0.46 % ID/g
  biodistribution, Muscle: 0.31 ± 0.02 % ID/g
  biodistribution, Pancreas: 2.29 ± 0.73 % ID/g
  biodistribution, Small Intestine: 2.73 ± 0.64 % ID/g
  biodistribution, Spleen: 1.97 ± 0.47 % ID/g
  biodistribution, Stomach: 1.20 ± 0.46 % ID/g
[1]; [7]
  biodistribution, Adrenals: 2.08 ± 0.60 % ID/g
  biodistribution, Blood: 0.19 ± 0.03 % ID/g
  biodistribution, Bone: 0.63 ± 0.03 % ID/g
  biodistribution, Brain: 0.09 ± 0.01 % ID/g
  biodistribution, Heart: 2.69 ± 0.32 % ID/g
  biodistribution, Kidney: 2.91 ± 0.37 % ID/g
  biodistribution, Large Intestine: 0.53 ± 0.14 % ID/g
  biodistribution, Liver: 2.60 ± 0.43 % ID/g
  biodistribution, Lung: 1.73 ± 0.31 % ID/g
  biodistribution, Muscle: 0.36 ± 002 % ID/g
  biodistribution, Pancreas: 2.12 ± 0.13 % ID/g
  biodistribution, Small Intestine: 2.33 ± 0.72 % ID/g
  biodistribution, Spleen: 1.26 ± 0.78 % ID/g
  biodistribution, Stomach: 0.88 ± 0.24 % ID/g
[1]; [8]
  biodistribution, Adrenals: 1.32 ± 0.88 % ID/g
  biodistribution, Blood: 0.15 ± 0.08 % ID/g
  biodistribution, Bone: 0.38 ± 0.18 % ID/g
  biodistribution, Brain: 0.07 ± 0.03 % ID/g
  biodistribution, Heart: 1.58 ± 0.79 % ID/g
  biodistribution, Kidney: 1.56 ± 0.77 % ID/g
  biodistribution, Large Intestine: 0.47 ± 0.22 % ID/g
  biodistribution, Liver: 1.79 ± 1.07 % ID/g
  biodistribution, Lung: 1.02 ± 0.45 % ID/g
  biodistribution, Muscle: 0.21 ± 0.06 % ID/g
  biodistribution, Pancreas: 1.76 ± 0.91 % ID/g
  biodistribution, Small Intestine: 1.45 ± 0.82 % ID/g
  biodistribution, Spleen: 1.27 ± 0.57 % ID/g
  biodistribution, Stomach: 0.57 ± 0.24 % ID/g
[1]; [9]
  biodistribution, Adrenals: 1.45 ± 0.43 % ID/g
  biodistribution, Blood: 0.17 ± 0.01 % ID/g
  biodistribution, Bone: 0.54 ± 0.16 % ID/g
  biodistribution, Brain: 0.08 ± 0.02 % ID/g
  biodistribution, Heart: 1.48 ± 0.41 % ID/g
  biodistribution, Kidney: 1.45 ± 0.14 % ID/g
  biodistribution, Large Intestine: 0.53 ± 0.20 % ID/g
  biodistribution, Liver: 2.25 ± 0.77 % ID/g
  biodistribution, Lung: 1.00 ± 0.44 % ID/g
  biodistribution, Muscle: 0.35 ± 0.14 % ID/g
  biodistribution, Pancreas: 1.99 ± 0.73 % ID/g
  biodistribution, Small Intestine: 1.25 ± 0.34 % ID/g
  biodistribution, Spleen: 1.43 ± 0.41 % ID/g
  biodistribution, Stomach: 0.64 ± 0.31 % ID/g
[1]; [10]
  biodistribution, Adrenals: 0.56 ± 0.22 % ID/g
  biodistribution, Blood: 0.10 ± 0.05 % ID/g
  biodistribution, Bone: 0.33 ± 0.12 % ID/g
  biodistribution, Brain: 0.06 ± 0.03 % ID/g
  biodistribution, Heart: 0.67 ± 0.21 % ID/g
  biodistribution, Kidney: 0.76 ± 0.27 % ID/g
  biodistribution, Large Intestine: 0.36 ± 0.24 % ID/g
  biodistribution, Liver: 1.32 ± 0.73 % ID/g
  biodistribution, Lung: 0.60 ± 0.23 % ID/g
  biodistribution, Muscle: 0.24 ± 0.13 % ID/g
  biodistribution, Pancreas: 1.31 ± 0.66 % ID/g
  biodistribution, Small Intestine: 0.83 ± 0.37 % ID/g
  biodistribution, Spleen: 0.88 ± 0.42 % ID/g
  biodistribution, Stomach: 0.34 ± 0.15 % ID/g
[1]; [11]
  biodistribution, Adrenals: 0.75 ± 0.07 % ID/g
  biodistribution, Blood: 0.20 ± 0.01 % ID/g
  biodistribution, Bone: 0.61 ± 0.04 % ID/g
  biodistribution, Brain: 0.13 ± 0.01 % ID/g
  biodistribution, Heart: 0.81 ± 0.02 % ID/g
  biodistribution, Kidney: 0.90 ± 0.04 % ID/g
  biodistribution, Large Intestine: 0.59 ± 0.05 % ID/g
  biodistribution, Liver: 1.90 ± 0.03 % ID/g
  biodistribution, Lung: 0.79 ± 0.05 % ID/g
  biodistribution, Muscle: 0.61 ± 0.11 % ID/g
  biodistribution, Pancreas: 1.65 ± 0.20 % ID/g
  biodistribution, Small Intestine: 0.89 ± 0.02 % ID/g
  biodistribution, Spleen: 1.34 ± 0.06 % ID/g
  biodistribution, Stomach: 0.44 ± 0.15 % ID/g
[2]; 0 min p.i.
  activity in occluded areas, percent of the uptake in normal tissues: 7%
[2]; 15 min p.i.
  activity in occluded areas, percent of the uptake in normal tissues: 37%
[2]; 45 min p.i.
  activity in occluded areas, percent of the uptake in normal tissues: 82%
[2]; compared with Tl-201, occluded heart areas after reperfusion
  redistribution kinetics: considerably faster
[3]; PET summation images, rat
  uptake in the myocardium: highest shortly after administration
[3]; PET, rat with temporary coronary artery occlusion
  period after re-opening of the occlusion over which filling in of the defect takes place (redistribution): 40 to 50 min
